Assay results from PMC10401651, “Characterization of Uranyl (UO2^2+) Ion Binding to Amyloid Beta (Aβ) Peptides: Effects on Aβ Structure and Aggregation” (ACS Chemical Neuroscience, 2023).

Columns and labels:
Aβ40 peptides [1] = target: T1, Aβ40 peptides (Homo sapiens, UniProt P05067); assay: ThT fluorescence measurements of Aβ40 aggregation kinetics; type: biochemical; details: for t1/2 (aggregation halftime): 15 h; for ΔThT (increase in ThT fluorescence): 20 μM Aβ40, pH 7.3, 37 °C, end of 15 h
T1 construct: namely, the Aβ40 peptide; purchased AlexoTech AB (Umeå, Sweden); host or cells: recombinant
T1 sequence (P05067 672-711 limits assumed): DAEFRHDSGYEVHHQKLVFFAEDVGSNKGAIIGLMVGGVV
Description: Fitting eq 1 to the ThT fluorescence curves in Figure 1 produced the kinetic parameters Tlag and t1/2 (Table 1). […] The two samples with 0 and 0.04 μM uranyl both have aggregation half-times of around 3 h and lag times of around 2 h under the experimental conditions (Table 1). The aggregation of the 0.2 μM uranyl sample is clearly slower, with a half-time of almost 7 h and a lag time of around 5 h.
Thioflavin T is a benzothiazole dye that increases in fluorescence upon binding to amyloid aggregates[116] and is therefore used to monitor the formation of amyloid aggregates. The ThT dye was excited at 440 nm, and ThT fluorescence emission at 480 nm was measured every 5 min. Before each measurement, the plate was shaken in orbital mode for 140 s at 200 rpm. The samples were incubated for a total of 15 h, and the assay was repeated three times with four replicates of each condition. To determine kinetic aggregation parameters, the data was fitted to eq 1: [drawing 1] 1 Here, F0 and F∞ are the intercepts of the initial and final fluorescence intensity baselines, m0 and m∞ are the slopes of the initial and final baselines, t1/2 is the time needed to reach halfway through the elongation phase (i.e., aggregation half-time), and τ is the elongation time constant.[116]

Aβ40 peptides [2] = target: T1, Aβ40 peptides; assay: Fluorescence measurements of dityrosine cross-link formation; type: biochemical; details: 100 μM uranyl acetate, 10 μM Aβ40, 20 mM MES pH 7.3, 24 h, room temperature
Description: Two samples of Aβ40 peptides were studied. The control sample contained 100 μM EDTA to remove possible contaminating metal ions that could promote dityrosine formation. […] For both samples, the fluorescence spectra are virtually identical before and after 24 h of incubation (Figure 6). Specifically, no peak around 410 nm, indicative of dityrosine,[129],[130] has emerged.
Fluorescence emission spectra between 330 and 480 nm (excitation at 315 nm) were recorded at room temperature with a Jobin Yvon Horiba Fluorolog 3 fluorescence spectrometer (Longjumeau, France) for two samples of 10 μM Aβ40 peptide in 20 mM MES buffer, pH 7.3. […] The control sample contained 100 μM of the chelator EDTA to remove any free metal ions. All measurements were conducted in triplicate using a quartz cuvette with a 4 mm path length and containing a 0.7 mL liquid sample. Spectra were recorded after 0 and 24 h of incubation, during which the samples were kept at room temperature without agitation or other treatment.

[3] = 0.04 μM uranyl acetate, 20 μM Aβ40, 20 mM MES pH 7.3, 37 °C
[4] = 0.2 μM uranyl acetate, 20 μM Aβ40, 20 mM MES pH 7.3, 37 °C
[5] = 0.2 μM uranyl acetate, 20 μM Aβ40, 20 mM MES pH 7.3, 37 °C, listed as uranyl

CC(=O)[O-].CC(=O)[O-].[O]=[U+2]=[O] [uranyl ions, uranyl acetate]
Tlag (lag time) (Aβ40 peptides [1]; [3]): 2.0 ± 1.1 h
t1/2 (aggregation halftime) (Aβ40 peptides [1]; [3]): around 3 h
Tlag (lag time) (Aβ40 peptides [1]; 0.04 μM uranyl acetate, 20 μM Aβ40, 20 mM MES pH 7.3, 37 °C, listed as uranyl): around 2 h
ΔThT (increase in ThT fluorescence) (Aβ40 peptides [1]; 0.04 μM uranyl acetate): 1286 a.u.
Tlag (lag time) (Aβ40 peptides [1]; [4]): 5.2 ± 0.9 h
t1/2 (aggregation halftime) (Aβ40 peptides [1]; [4]): 6.7 ± 1.4 h
t1/2 (aggregation halftime) (Aβ40 peptides [1]; [5]): ~7 h
Tlag (lag time) (Aβ40 peptides [1]; [5]): around 5 h
ΔThT (increase in ThT fluorescence) (Aβ40 peptides [1]; 0.2 μM uranyl acetate): 958 a.u.
ΔThT (increase in ThT fluorescence) (Aβ40 peptides [1]; 0.4 μM uranyl acetate): 101 a.u.
lag time, visually estimated (Aβ40 peptides [1]; 0.4 μM uranyl, 20 μM Aβ40, 20 mM MES pH 7.3, 37 °C): approximately 9 h
ΔThT (increase in ThT fluorescence) (Aβ40 peptides [1]; 2 μM uranyl acetate): 0 a.u.
ΔThT (increase in ThT fluorescence) (Aβ40 peptides [1]; 20 μM uranyl acetate): 0 a.u.
Aβ40 aggregation seen in ThT curves (Aβ40 peptides [1]; 2 and 20 μM uranyl, 20 μM Aβ40, 15 h): no obvious signs of aggregation after 15 h
formation of dityrosine cross-links (Aβ40 peptides [2]): do not induce the formation of dityrosine cross-links
